Results taken from patent publication US20030105595A1, “Chi square tests for gene expression” (priority 2001, published 2003).

Legend:
Test in all cases: multi-sample expression analysis, band intensity
Format in all cases: in vivo
Conditions in all cases: Pooled
band b1i0_63.7 = system: band b1i0_63.7
Text: (§1) To practice the invention, one skilled in the art obtains a source of biological samples, as well as expression information about the biological samples, i.e., expression information relative to one or more genes or polypeptides encoded therein. Data is collected for a particular phenotype appearing within a given population under study, whereby expression of that phenotype is to be determined within the biological sample under study. The phenotype is correlated to a specific genotype, which is then represented as a band with a given intentity, thus indicative of gene expression levels, and is then compared to control samples. Alternatively, the response of a gene to dosage with one or more drugs is determined by band intensity. The standard deviation from the mean (StdDev) is calculated for the control samples, and is fit to functional form in the following equation: […]
(§2) A multi-sample expression analysis was run using the program described in Example 1. For each drug run, only runs for genes producing bands with a p-value<10^−5 in at least 2 of the following 3 comparisons were selected: low dose versus vehicle, high dose versus vehicle and low dose versus high dose. […] Since clusters found using all 13K bands included some of the best 2K bands, it was concluded that no essential signal was lost (see FIGS. 3 and 4). […] A comparison using the same analytic tests on only the best 2K bands. It can be seen that the Chi Square metric provides a better distinction between low and high doses than the correlation metric, which is not able to distinguish between the low dose and the high dose (see FIG. 6). The low-dose/high dose statistical variation is more pronounced when only the best 2K bands are selected.

band b1i0_57.4 = system: band b1i0_57.4
Text: as §1, §2

band b1i0_53.0 = system: band b1i0_53.0
Text: as §1, §2

band b1i0_62.5 = system: band b1i0_62.5
Text: as §1, §2

band b1i0_69.4 = system: band b1i0_69.4
Text: as §1, §2

band b1i0_60.7 = system: band b1i0_60.7
Text: as §1, §2

band b1i0_54.5 = system: band b1i0_54.5
Text: as §1, §2

band b1i0_51.7 = system: band b1i0_51.7
Text: as §1, §2

Compound: Dichlorobenzene
- band intensity b1i0_63.7 (band b1i0_63.7; High dose, 1d): 129
- band intensity b1i0_63.7 (band b1i0_63.7; High dose, 3d): 5.698
- band intensity b1i0_63.7 (band b1i0_63.7; High dose, 7d): 224.3
- band intensity b1i0_63.7 (band b1i0_63.7; High dose, 14d): 157.7
- band intensity b1i0_63.7 (band b1i0_63.7; Low dose, 1d): 166.2
- band intensity b1i0_63.7 (band b1i0_63.7; Low dose, 3d): 24.94
- band intensity b1i0_63.7 (band b1i0_63.7; Low dose, 7d): 258.8
- band intensity b1i0_63.7 (band b1i0_63.7; Low dose, 14d): 152.1
- band intensity b1i0_57.4 (band b1i0_57.4; High dose, 1d): 1260
- band intensity b1i0_57.4 (band b1i0_57.4; High dose, 3d): 1064
- band intensity b1i0_57.4 (band b1i0_57.4; High dose, 7d): 1287
- band intensity b1i0_57.4 (band b1i0_57.4; High dose, 14d): 1142
- band intensity b1i0_57.4 (band b1i0_57.4; Low dose, 1d): 1301
- band intensity b1i0_57.4 (band b1i0_57.4; Low dose, 3d): 1352
- band intensity b1i0_57.4 (band b1i0_57.4; Low dose, 7d): 1298
- band intensity b1i0_57.4 (band b1i0_57.4; Low dose, 14d): 1338
- band intensity b1i0_53.0 (band b1i0_53.0; High dose, 1d): 103.4
- band intensity b1i0_53.0 (band b1i0_53.0; High dose, 3d): 48.52
- band intensity b1i0_53.0 (band b1i0_53.0; High dose, 7d): 99.66
- band intensity b1i0_53.0 (band b1i0_53.0; High dose, 14d): 95.42
- band intensity b1i0_53.0 (band b1i0_53.0; Low dose, 1d): 127.1
- band intensity b1i0_53.0 (band b1i0_53.0; Low dose, 3d): 71.53
- band intensity b1i0_53.0 (band b1i0_53.0; Low dose, 7d): 113.8
- band intensity b1i0_53.0 (band b1i0_53.0; Low dose, 14d): 116.4
- band intensity b1i0_62.5 (band b1i0_62.5; High dose, 1d): 68.45
- band intensity b1i0_62.5 (band b1i0_62.5; High dose, 3d): 97.82
- band intensity b1i0_62.5 (band b1i0_62.5; High dose, 7d): 76.86
- band intensity b1i0_62.5 (band b1i0_62.5; High dose, 14d): 64.49
- band intensity b1i0_62.5 (band b1i0_62.5; Low dose, 1d): 73.54
- band intensity b1i0_62.5 (band b1i0_62.5; Low dose, 3d): 76.31
- band intensity b1i0_62.5 (band b1i0_62.5; Low dose, 7d): 88.91
- band intensity b1i0_62.5 (band b1i0_62.5; Low dose, 14d): 68.64
- band intensity b1i0_69.4 (band b1i0_69.4; High dose, 1d): 295.5
- band intensity b1i0_69.4 (band b1i0_69.4; High dose, 3d): 393.2
- band intensity b1i0_69.4 (band b1i0_69.4; High dose, 7d): 261.7
- band intensity b1i0_69.4 (band b1i0_69.4; High dose, 14d): 311.3
- band intensity b1i0_69.4 (band b1i0_69.4; Low dose, 1d): 130.6
- band intensity b1i0_69.4 (band b1i0_69.4; Low dose, 3d): 334.6
- band intensity b1i0_69.4 (band b1i0_69.4; Low dose, 7d): 304.3
- band intensity b1i0_69.4 (band b1i0_69.4; Low dose, 14d): 333.2913
- band intensity b1i0_60.7 (band b1i0_60.7; High dose, 1d): 79.94
- band intensity b1i0_60.7 (band b1i0_60.7; High dose, 3d): 62.13
- band intensity b1i0_60.7 (band b1i0_60.7; High dose, 7d): 77.87
- band intensity b1i0_60.7 (band b1i0_60.7; High dose, 14d): 82.42
- band intensity b1i0_60.7 (band b1i0_60.7; Low dose, 1d): 95.98
- band intensity b1i0_60.7 (band b1i0_60.7; Low dose, 3d): 58.61
- band intensity b1i0_60.7 (band b1i0_60.7; Low dose, 7d): 74.81
- band intensity b1i0_60.7 (band b1i0_60.7; Low dose, 14d): 94.46
- band intensity b1i0_54.5 (band b1i0_54.5; High dose, 1d): 91.99
- band intensity b1i0_54.5 (band b1i0_54.5; High dose, 3d): 89.82
- band intensity b1i0_54.5 (band b1i0_54.5; High dose, 7d): 80.92
- band intensity b1i0_54.5 (band b1i0_54.5; High dose, 14d): 84.91
- band intensity b1i0_54.5 (band b1i0_54.5; Low dose, 1d): 88.39
- band intensity b1i0_54.5 (band b1i0_54.5; Low dose, 3d): 128.4
- band intensity b1i0_54.5 (band b1i0_54.5; Low dose, 7d): 88.11
- band intensity b1i0_54.5 (band b1i0_54.5; Low dose, 14d): 101.4
- band intensity b1i0_51.7 (band b1i0_51.7; High dose, 1d): 27.84
- band intensity b1i0_51.7 (band b1i0_51.7; High dose, 3d): 10.75
- band intensity b1i0_51.7 (band b1i0_51.7; High dose, 7d): 16.63
- band intensity b1i0_51.7 (band b1i0_51.7; High dose, 14d): 21.77
- band intensity b1i0_51.7 (band b1i0_51.7; Low dose, 1d): 28.93
- band intensity b1i0_51.7 (band b1i0_51.7; Low dose, 3d): 26.06
- band intensity b1i0_51.7 (band b1i0_51.7; Low dose, 7d): 16.57
- band intensity b1i0_51.7 (band b1i0_51.7; Low dose, 14d): 23.43

Compound: O=NN(CCCl)C(=O)NCCCl [BCNU]
- band intensity b1i0_63.7 (band b1i0_63.7; High dose, 1d): 98.18
- band intensity b1i0_63.7 (band b1i0_63.7; High dose, 3d): 115.1
- band intensity b1i0_63.7 (band b1i0_63.7; Low dose, 1d): 155.4
- band intensity b1i0_63.7 (band b1i0_63.7; Low dose, 3d): 104.2
- band intensity b1i0_63.7 (band b1i0_63.7; Low dose, 7d): 204.2
- band intensity b1i0_57.4 (band b1i0_57.4; High dose, 1d): 1154
- band intensity b1i0_57.4 (band b1i0_57.4; High dose, 3d): 1296
- band intensity b1i0_57.4 (band b1i0_57.4; Low dose, 1d): 1235
- band intensity b1i0_57.4 (band b1i0_57.4; Low dose, 3d): 1367
- band intensity b1i0_57.4 (band b1i0_57.4; Low dose, 7d): 1345
- band intensity b1i0_53.0 (band b1i0_53.0; High dose, 1d): 110.8
- band intensity b1i0_53.0 (band b1i0_53.0; High dose, 3d): 118.4
- band intensity b1i0_53.0 (band b1i0_53.0; Low dose, 1d): 117.1
- band intensity b1i0_53.0 (band b1i0_53.0; Low dose, 3d): 98.96
- band intensity b1i0_53.0 (band b1i0_53.0; Low dose, 7d): 104.2
- band intensity b1i0_62.5 (band b1i0_62.5; High dose, 1d): 67.75
- band intensity b1i0_62.5 (band b1i0_62.5; High dose, 3d): 84.85
- band intensity b1i0_62.5 (band b1i0_62.5; Low dose, 1d): 69.48
- band intensity b1i0_62.5 (band b1i0_62.5; Low dose, 3d): 57.9
- band intensity b1i0_62.5 (band b1i0_62.5; Low dose, 7d): 82.58
- band intensity b1i0_69.4 (band b1i0_69.4; High dose, 1d): 194.3
- band intensity b1i0_69.4 (band b1i0_69.4; High dose, 3d): 219.1
- band intensity b1i0_69.4 (band b1i0_69.4; Low dose, 1d): 254
- band intensity b1i0_69.4 (band b1i0_69.4; Low dose, 3d): 292.1
- band intensity b1i0_69.4 (band b1i0_69.4; Low dose, 7d): 325.1
- band intensity b1i0_60.7 (band b1i0_60.7; High dose, 1d): 78.55
- band intensity b1i0_60.7 (band b1i0_60.7; High dose, 3d): 115.4
- band intensity b1i0_60.7 (band b1i0_60.7; Low dose, 1d): 88.97
- band intensity b1i0_60.7 (band b1i0_60.7; Low dose, 3d): 80.09
- band intensity b1i0_60.7 (band b1i0_60.7; Low dose, 7d): 96.79
- band intensity b1i0_54.5 (band b1i0_54.5; High dose, 1d): 112.4
- band intensity b1i0_54.5 (band b1i0_54.5; High dose, 3d): 112.1
- band intensity b1i0_54.5 (band b1i0_54.5; Low dose, 1d): 102.8
- band intensity b1i0_54.5 (band b1i0_54.5; Low dose, 3d): 103.6
- band intensity b1i0_54.5 (band b1i0_54.5; Low dose, 7d): 108.2
- band intensity b1i0_51.7 (band b1i0_51.7; High dose, 1d): 29.61
- band intensity b1i0_51.7 (band b1i0_51.7; High dose, 3d): 30.97
- band intensity b1i0_51.7 (band b1i0_51.7; Low dose, 1d): 24.27
- band intensity b1i0_51.7 (band b1i0_51.7; Low dose, 3d): 21.64
- band intensity b1i0_51.7 (band b1i0_51.7; Low dose, 7d): 19.76
